Results from patent US20240190854A1, “PYRIMIDINE OR PYRIDINE DERIVATIVES USEFUL AS HCN2 MODULATORS” (King's College London, priority 2021, published 2024).
Where a name gives a salt, the structure may show the parent alone.

Columns and labels:
HCN2 = HCN2 (Homo sapiens (Human), UniProt Q9UL51); assay: HCN2 current assay using PatchXpress 7000A; format: cell-based; conditions: PatchXpress protocol; read-out: PX HCN2 IC50
Description: (§1) Example 126A, Using PatchXpress 7000A
(§2) Solutions for recording HCN currents were:
The membrane voltage was then stepped back to −30 mV for a further 8 seconds.
(§3) The peak inward current measured at the end of the pulse to −110 mV (HCN1 and HCN2) or −130 mV (HCN4) was measured and any leak current subtracted to calculate the HCN current. The HCN current amplitude was measured after each control or compound addition and normalized to the control amplitude (Control A).
(§4) All experiments were performed at room temperature (approximately 22° C.).
(§5) Each test compound concentration was applied to the cell for seven (7) minutes, at which point the next cumulative concentration was applied.

HCN4 = HCN4 (Homo sapiens (Human), UniProt Q9Y3Q4); assay: HCN4 current assay using PatchXpress 7000A; format: cell-based; conditions: PatchXpress protocol; read-out: PX HCN4 IC50
Chain of HCN4 (Q9Y3Q4 whole entry, species assumed): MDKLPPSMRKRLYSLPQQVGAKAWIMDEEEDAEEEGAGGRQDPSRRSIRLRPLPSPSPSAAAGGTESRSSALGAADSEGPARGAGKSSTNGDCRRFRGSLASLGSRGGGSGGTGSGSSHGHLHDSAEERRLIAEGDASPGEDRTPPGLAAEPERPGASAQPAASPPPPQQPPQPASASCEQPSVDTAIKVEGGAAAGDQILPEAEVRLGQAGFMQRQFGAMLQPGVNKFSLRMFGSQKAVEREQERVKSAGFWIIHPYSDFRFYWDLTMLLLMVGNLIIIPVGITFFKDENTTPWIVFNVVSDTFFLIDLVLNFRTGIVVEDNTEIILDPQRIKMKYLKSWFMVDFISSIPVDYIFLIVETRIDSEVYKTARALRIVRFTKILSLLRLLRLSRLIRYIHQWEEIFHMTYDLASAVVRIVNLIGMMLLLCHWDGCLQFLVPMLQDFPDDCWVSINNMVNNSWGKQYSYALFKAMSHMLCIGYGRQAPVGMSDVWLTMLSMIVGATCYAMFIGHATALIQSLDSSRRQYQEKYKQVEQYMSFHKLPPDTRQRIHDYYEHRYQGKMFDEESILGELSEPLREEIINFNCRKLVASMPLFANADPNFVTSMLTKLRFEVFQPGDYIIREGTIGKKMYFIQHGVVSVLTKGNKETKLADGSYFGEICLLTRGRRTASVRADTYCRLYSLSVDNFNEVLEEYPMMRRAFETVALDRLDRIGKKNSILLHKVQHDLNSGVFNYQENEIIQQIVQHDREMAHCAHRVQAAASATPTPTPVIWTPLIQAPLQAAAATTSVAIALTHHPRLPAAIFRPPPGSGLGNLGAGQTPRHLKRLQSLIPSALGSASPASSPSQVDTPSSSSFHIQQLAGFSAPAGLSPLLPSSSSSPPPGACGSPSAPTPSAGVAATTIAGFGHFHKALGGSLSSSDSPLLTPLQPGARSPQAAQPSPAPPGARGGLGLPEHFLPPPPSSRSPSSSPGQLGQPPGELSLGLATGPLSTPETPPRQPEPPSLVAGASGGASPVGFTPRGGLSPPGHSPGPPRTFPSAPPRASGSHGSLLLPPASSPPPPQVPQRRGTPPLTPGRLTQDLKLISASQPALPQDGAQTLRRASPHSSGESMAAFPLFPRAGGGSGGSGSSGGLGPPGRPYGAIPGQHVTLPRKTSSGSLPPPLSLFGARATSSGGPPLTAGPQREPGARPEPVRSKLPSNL
Description: as §1, §2, §3, §4, §5

Chain of HCN2 (Q9UL51 whole entry): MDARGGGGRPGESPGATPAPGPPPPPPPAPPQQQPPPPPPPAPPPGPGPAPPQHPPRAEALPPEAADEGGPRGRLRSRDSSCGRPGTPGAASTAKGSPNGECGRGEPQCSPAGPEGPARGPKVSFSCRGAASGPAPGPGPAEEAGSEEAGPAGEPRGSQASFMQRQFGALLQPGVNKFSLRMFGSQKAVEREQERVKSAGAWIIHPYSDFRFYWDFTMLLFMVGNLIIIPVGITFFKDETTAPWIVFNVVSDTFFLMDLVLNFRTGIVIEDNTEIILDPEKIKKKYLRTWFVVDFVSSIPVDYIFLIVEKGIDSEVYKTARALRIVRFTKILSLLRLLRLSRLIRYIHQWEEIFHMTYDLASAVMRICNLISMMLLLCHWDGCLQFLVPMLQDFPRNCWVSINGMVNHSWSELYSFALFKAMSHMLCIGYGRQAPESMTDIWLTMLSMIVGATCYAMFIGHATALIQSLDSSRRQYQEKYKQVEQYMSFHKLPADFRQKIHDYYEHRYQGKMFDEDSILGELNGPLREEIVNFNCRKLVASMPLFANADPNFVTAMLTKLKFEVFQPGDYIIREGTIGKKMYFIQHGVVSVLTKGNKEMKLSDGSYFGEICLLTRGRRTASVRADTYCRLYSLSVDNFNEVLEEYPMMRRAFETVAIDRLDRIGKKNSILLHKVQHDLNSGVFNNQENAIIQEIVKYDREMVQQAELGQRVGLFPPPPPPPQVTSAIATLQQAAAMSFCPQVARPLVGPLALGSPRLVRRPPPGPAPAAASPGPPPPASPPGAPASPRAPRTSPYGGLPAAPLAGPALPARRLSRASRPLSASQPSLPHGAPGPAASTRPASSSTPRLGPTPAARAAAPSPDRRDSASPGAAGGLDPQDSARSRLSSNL

Compound | IC50 (HCN2) [µM] | IC50 (HCN4) [µM]
NC(=O)c1cccc(C[C@H](N)c2ccccc2-c2noc3ccccc23)n1 [Example 104, (S)-6-{2-Amino-2-[2-(benzo[d]isoxazol-3-yl)phenyl]ethyl}pyridine-2-carboxamide hydrochloride] | 2.6 | 10.4
Cc1ccc(C#N)nc1C[C@H](N)c1ccccc1-c1noc2ccccc12 [Example 58, (S)-1-[2-(Benzo[d]isoxazol-3-yl)phenyl]-2-(6-cyano-3-methylpyridin-2-yl)ethan-1-amine] | 0.5 | 7.2
N[C@@H](Cc1ccccn1)c1ccccc1-c1noc2cccc(Br)c12 [Example 43, (S)-1-[2-(4-Bromobenzo[d]isoxazol-3-yl)phenyl]-2-(pyridine-2-yl)ethan-1-amine hydrochloride] | 16 | 
COCCNC(=O)c1cccc(C[C@H](N)c2ccccc2-c2noc3ccccc23)n1 [Example 108, (S)-6-{2-[Amino-2-(benzo[d]isoxazol-3-yl)phenyl]ethyl}-N-(2-methoxyethyl)pyridine-2-carboxamide hydrochloride] | 3.5 | 5.1
N[C@@H](Cc1ccccn1)c1cccc(Br)c1-c1noc2ccccc12 [Example 86, (S)-1-[2-(Benzo[d]isoxazol-3-yl)-3-bromophenyl]-2-(pyridine-2-yl)ethan-1-amine hydrochloride] | 17.4 | 
N[C@@H](Cc1ccccn1)c1ccccc1-c1noc2cc(C3CC3)ccc12 [Example 34, (S)-1-[2-(6-Cyclopropylbenzo[d]isoxazol-3-yl)phenyl]-2-(pyridine-2-yl)ethan-1-amine] | 16.7 | 
CC(c1ccccn1)C(N)c1ccccc1-c1noc2ccccc12 (single isomer, unassigned; diastereomer 1) [Example 1, 1-[2-(Benzo[d]isoxazol-3-yl)phenyl]-2-(pyridin-2-yl)propan-1-amine hydrochloride (diastereomer 1)] | 7.4 | 
CC(O)c1ccc2c(-c3ccccc3[C@@H](N)Cc3ccccn3)noc2c1 (stereo partly drawn) [Example 35, (S)-1-[2-(6-[1-Hydroxyethyl]benzo[d]isoxazol-3-yl)phenyl]-2-(pyridine-2-yl)ethan-1-amine] | 8.9 | 
N[C@@H](Cc1cccc(N2CC[C@H](O)C2)n1)c1ccccc1-c1noc2ccccc12 [Example 53, (S)-1-(6-{(S)-2-Amino-2-[2-(benzo[d]isoxazol-3-yl)phenyl]ethyl}pyridine-2-yl)pyrrolidin-3-ol hydrochloride] | 6.2 | 
CC(C)n1nc(-c2ccccc2[C@@H](N)Cc2cccc(Br)n2)c2ccccc21 [Example 64, (S)-2-(6-Bromopyridine-2-yl)-1-[2-(1-isopropyl-1H-indazole-3-yl)phenyl]ethan-1-amine hydrochloride] | 1.3 | 6.4
N[C@@H](Cc1ccccn1)c1cc(Br)ccc1-c1noc2ccccc12 [Example 83, (S)-1-[2-(benzo[d]isoxazol-3-yl)-5-bromophenyl]-2-(pyridine-2-yl)ethan-1-amine] | 1.8 | > 30
COc1ccc(-c2noc3ccccc23)c([C@@H](N)Cc2ccccn2)c1 [Example 82, (S)-1-[2-(Benzo[d]isoxazol-3-yl)-5-methoxyphenyl]-2-(pyridine-2-yl)ethan-1-amine hydrochloride] | 26.6 | 
COc1cccc(C[C@H](N)c2ccccc2-c2noc3ccccc23)n1 [Example 115, (S)-1-[2-(Benzo[d]isoxazol-3-yl)phenyl]-2-(6-methoxypyridine-2-yl)ethan-1-amine hydrochloride] | 0.69 | 
CN(CCO)c1cccc(C[C@H](N)c2ccccc2-c2noc3ccccc23)n1 [Example 55, (S)-2-[(6-{(S)-2-Amino-2-[2-(benzo[d]isoxazol-3-yl)phenyl]ethyl}pyridine-2-yl)(methyl)amino]ethan-1-ol hydrochloride] | 0.8 | 2
N[C@@H](Cc1cccc(C(=O)NCC2CC2)n1)c1ccccc1-c1noc2ccccc12 [Example 107, (S)-6-{2-Amino-2-[2-(benzo[d]isoxazol-3-yl)phenyl]ethyl}-N-(cyclopropylmethylpyridine-2-carboxamide hydrochloride] | 1.4 | 3.2
Cc1ccc([C@@H](N)Cc2ccccn2)c(-c2noc3ccccc23)c1 [Example 38, (S)-1-[2-(Benzo[d]isoxazol-3-yl)-4-methylphenyl]-2-(pyridine-2-yl)ethan-1-amine hydrochloride] | 13 | 
N[C@@H](Cc1cccc(N2CCOCC2)n1)c1ccccc1-c1noc2ccccc12 [Example 54, (S)-1-[2-(Benzo[d]isoxazol-3-yl)phenyl]-2-(6-morpholinopyridine-2-yl)ethane-1-amine hydrochloride] | 1 | 2.1
Cc1ccc(C(=O)N(C)C)nc1C[C@H](N)c1ccccc1-c1noc2ccccc12 [Example 8, (S)-6-{2-Amino-2-[2-(benzo[d]isoxazol-3-yl)phenyl]ethyl}-N,N,5-trimethylpyridine-2-carboxamide] | 2.5 | 
N[C@@H](Cc1ccccn1)c1ccccc1-c1noc2ccc(Br)cc12 [Example 113, (S)-1-[2-(5-Bromobenzo[d]isoxazol-3-yl)phenyl]-2-(pyridine-2-yl)ethan-1-amine hydrochloride] | 22.9 | 
N[C@@H](Cc1ccccn1)c1ccccc1-c1noc2cc(C#CCO)ccc12 [Example 32, (S)-1-[2-(6-[3-Hydroxyprop-1-yn-1-yl]benzo[d]isoxazol-3-yl)phenyl]-2-(pyridine-2-yl)ethan-1-amine hydrochloride] | 8.5 | 

Results, then the molecule that gave them:

IC50 (HCN2) [µM] | IC50 (HCN4) [µM] | Compound
1.7 | 18.8 | N[C@@H](Cc1ccccn1)c1c(Br)cccc1-c1noc2ccccc12 [Example 87, (S)-1-[2-(Benzo[d]isoxazol-3-yl)-6-bromophenyl]-2-(pyridine-2-yl)ethan-1-amine hydrochloride]
0.9 | 6.8 | Cc1ccc(C)c(C[C@H](N)c2ccccc2-c2noc3ccccc23)n1 [Example 59, (S)-1-[2-(benzo[d]isoxazol-3-yl)phenyl]-2(6-vinylpyridin-2-yl)ehtan-1-amine]
8.7 |  | CC(=O)Nc1cccnc1C[C@H](N)c1ccccc1-c1noc2ccccc12 [Example 76, (S)—N-(2-{2-Amino-2-[2-(benzo[d]isoxazol-3-yl)phenyl]ethyl}pyridin-3-yl)acetamide hydrochloride]
5.9 | > 30 | CS(=O)(=O)Nc1cccc(C[C@H](N)c2ccccc2-c2noc3ccccc23)n1 [Example 123, (S)—N-(6-{2-Amino-2-[2-(benzo[d]isoxazol-3-yl)phenyl]ethyl}pyridine-2-yl)methanesulfonamide hydrochloride]
8.5 | > 30 | N[C@@H](Cc1cccc(C(=O)N2CCOCC2)n1)c1ccccc1-c1noc2ccccc12 [Example 106, (S)-(6-{2-Amino-2-[2-(benzo[d]isoxazol-3-yl)phenyl]ethyl}pyridine-2-yl)(morpholino)methanone hydrochloride]
2 | 13.2 | N[C@@H](Cc1cccc(CO)n1)c1ccccc1-c1noc2ccccc12 [Example 98, (S)-1-[2-(Benzo[d]isoxazol-3-yl)phenyl]-2-(6-hydroxymethylpyridine-2-yl)ethan-1-amine hydrochloride]
4.9 |  | N[C@@H](Cc1ncccc1C1CC1)c1ccccc1-c1noc2ccccc12 [Example 79, (S)-1-[2-(Benzo[d]isoxazol-3-yl)phenyl]-2-(3-cyclopropylpyridin-2-yl)ethan-1-amine formate]
14 |  | N#Cc1ccc(-c2noc3ccccc23)c([C@@H](N)Cc2ccccn2)c1 [Example 37, (S)-1-[2-(Benzo[d]isoxazol-3-yl)-5-cyanophenyl]-2-(pyridine-2-yl)ethan-1-amine hydrochloride]
2.3 | > 30 | CC(c1ccccn1)C(N)c1ccccc1-c1noc2ccccc12 (single isomer, unassigned; diastereomer 3) [Example 3, 1-[2-(Benzo[d]isoxazol-3-yl)phenyl]-2-(pyridin-2-yl)propan-1-amine hydrochloride (diastereomer 3)]
1.2 | 4.7 | Cc1noc(C)c1-c1cccc(C[C@H](N)c2ccccc2-c2noc3ccccc23)n1 [Example 94, (S)-1-[2-(Benzo[d]isoxazol-3-yl)phenyl]-2-[6-(3,5-dimethylisoxazol-4-yl)pyridine-2-yl)-ethan-1-amine hydrochloride]
1.9 |  | Cc1cc(C#N)cnc1C[C@H](N)c1ccccc1-c1noc2ccccc12 [Example 80, (S)-1-[2-(Benzo[d]isoxazol-3-yl)phenyl]-2-(3-methyl-5-cyanopyridin-2-yl)ethan-1-amine]
1.6 |  | N#Cc1cccc(C[C@H](N)c2ccccc2-c2noc3cc(Br)ccc23)n1 [Example 120, (S)-{2-Amino-[2-(6-bromobenzo[d]isoxazol-3-yl)phenyl]ethyl}-6-cyanopyridine]
22.1 |  | CC[C@H](c1ccccn1)[C@H](N)c1ccccc1-c1noc2ccccc12 [Example 45, (1S,2S)-1-[2-(Benzo[d]isoxazol-3-yl)phenyl]-2-(pyridin-2-yl)butan-1-amine hydrochloride]
5.7 |  | CS(=O)(=O)c1nc(C[C@H](N)c2ccccc2-c2noc3ccccc23)ccc1F [Example 7, (S)-1-[2-(Benzo[d]isoxazol-3-yl)phenyl]-2-(5-fluoro-6-methylsulfonylpyridine-2-yl)ethan-1-amine hydrochloride]
13 |  | N[C@@H](Cc1ccccn1)c1ccc(Br)cc1-c1noc2ccccc12 [Example 85, (S)-1-[2-(Benzo[d]isoxazol-3-yl)-4-bromophenyl]-2-(pyridine-2-yl)ethan-1-amine]
